Laboratory results published in patent publication US20030050293A1, “Use of dehydroepiandrosterone, its precursors and derivatives, by oral administration, as hydrating agents with direct action” (priority 2000, published 2003).

Key:
[1] = tested on: skin on the ventral side of the forearm of healthy volunteers; assay: Evaluation of the moisturization of the skin by electrical conductance (Dermodiag), randomized double-blind clinical study; type: in vivo, human; details: for moisturization of the skin vs placebo (Wilcoxon test): 12 months oral 50 mg daily; for Conductance: 50 mg daily oral
Experimental: (§1) The evaluation was carried out using a randomized double-blind clinical study among 280 individuals (140 men and 140 women). The inclusion criteria was as follows: healthy volunteers, of both sexes, free of any severe pathological condition and 60 to 80 years old.
(§2) The treatment consisted, for 12 months, of a daily dose of 50 mg of DHEA, taken in the morning, in the form of a breakable tablet, for half of the individuals, or of a placebo for the other half of the individuals.
The moisturization of the skin on the ventral side of the forearm is measured, blind, at the start of treatment (T0) and at the end of treatment (T12), by the same clinician, using a Dermodiag®, which is a device described in patent U.S. Pat. No. 5,001,436. The characteristics of the device are as follows: outlet impedance: 1.4 kOhms and working frequency 10 MHz. The method used is that described by J. L. Lévêque, Soc. Cosmet. Chem. (1983), 34, 419-428.
This device makes it possible to evaluate the state of moisturization (water content of the superficial layers of the epidermis) by measuring electrical conductance. The conductance is measured using an electrode applied to the skin for 10 seconds. The conductance value is the result of the mean of 6 individual measurements per measurement time.
(§3) The statistical analysis is performed using the Wilcoxon test.

[2] = tested on: sebaceous glands of the skin of healthy volunteers; assay: Evaluation of the production of sebum (Sebutape patches, number of spots by image analysis), randomized double-blind clinical study; type: in vivo, human; details: for variation in seborrhea vs placebo (Wilcoxon test): 12 months oral 50 mg daily; for Number of spots: 50 mg daily oral
Experimental: as §1, §2
The production of sebum is measured at the start of treatment (T0) and at the end of treatment (T12) according to the techniques described by A. M. Kligman et al., J. Soc. Cosmet. Chem. (1986), 37, 369-373 and by K. M. Nordstrom et al., J. Invest. Dermatol. (1986), 87, 260-264.
White adhesive microporous patches (Sebutape®, Cuderm Corporation, Dallas, Tex., USA) described in U.S. Pat. No. 4,532,937 are used; the patches are applied in a standardized manner to the skin, which has been wiped 10 times, beforehand, with cotton soaked in 70° alcohol in order to remove any fat. The lipids which are passively absorbed onto the patches are visualized by the presence of transparent spots, themselves measured by image analysis.
Each spot represents an active sebaceous gland.
as §3

[3] = men, T0 (start of treatment), DHEA group
[4] = men, T12 (end of 12 months treatment)
[5] = women, T0 (start of treatment), DHEA group
[6] = women, T12 (end of 12 months treatment)

## C[C@]12CC[C@H](O)CC1=CC[C@@H]1[C@@H]2CC[C@]2(C)C(=O)CC[C@@H]12 [DHEA, Dehydroepiandrosterone]
[1]; men, p=0.03
  moisturization of the skin vs placebo (Wilcoxon test): significant improvement
[1]; [3]
  Conductance: 69
[1]; [4]
  Conductance: 86
[1]; men, treated group, T12 vs T0, 50 mg daily oral (placebo +21%, p=0.03)
  improvement of the moisturization of the skin, measured by conductance: 26%
[1]; women, p=0.44
  moisturization of the skin vs placebo (Wilcoxon test): without significant variation in the moisturization of the skin
[1]; [5]
  Conductance: 64
[1]; [6]
  Conductance: 84
[2]; men, p=0.46
  variation in seborrhea vs placebo (Wilcoxon test): no significant variation in seborrhea
[2]; [3]
  Number of spots: 55
[2]; [4]
  Number of spots: 140
[2]; women, p=0.0001
  variation in seborrhea vs placebo (Wilcoxon test): significant variation in seborrhea
[2]; [5]
  Number of spots: 2
[2]; [6]
  Number of spots: 56
